Reference: PMC3820767, “Turning Defense into Offense: Defensin Mimetics as Novel Antibiotics Targeting Lipid II” (PLoS Pathogens, 2013)
Where two headings read alike, the source gives them in different places.

What was measured:
[1] = Surface Plasmon Resonance binding to immobilized 3-Lipid II; details: SPR; for Binding on Lipid II?: Table S3, initial determination at 10 µM
Procedure: Surface Plasmon Resonance binding experiments were carried out on a BIAcore T100 system (BIAcore Inc., Piscataway, NY) at 25°C. The assay buffer was 10 mM HEPES, 150 mM NaCl, 0.05% surfactant P20, pH 7.4 (±3 mM EDTA) supplemented with 10% DMSO. […] For initial determination of binding, defensin mimetics were introduced into the flow-cells (30 µl/min) in the running buffer at 10 µM. Resonance signals were corrected for nonspecific binding by subtracting the background of the control flow-cell. After each analysis, the sensor chip surfaces were regenerated with 50 mM NaOH for 30 s at a flow rate 100 µl/min, and equilibrated with the buffer prior to next injection. For binding kinetics studies, binding isotherms were analyzed with manufacturer-supplied software for BIAcore T100.

[2] = tested on: Staphylococcus aureus ATCC 29213; assay: Antibacterial killing, 96-well turbidimetric (modified vCC) assay; assay type: cell-based; details: Table S3; concentration at which 100% killing occurred, no bacterial regrowth; No = not active
Procedure: (§1) The antibacterial activity of defensin mimetics against Staphylococcus aureus ATCC 29213 and Escherichia coli 25922 was carried out in a 96-well turbidimetric assay essentially as described previously with the following modifications: bacteria were exposed for 30 min to compounds in 10 mM phosphate buffer containing 5% DMSO prior to addition of 2× Muller-Hinton medium. Bacterial growth was monitored for 12 hours and data were analyzed as described. Determination of MICs was performed by Micromyx, LLC (Kalamazoo, Michigan) according to CLSI standards.

[3] = tested on: Escherichia coli ATCC 25922; assay: as above; assay type: cell-based; details: Table S3; concentration at which 100% killing occurred, no bacterial regrowth; No = not active
Procedure: as §1

[4] = tested on: Caco-2; assay: Cytotoxicity by MTT assay; assay type: cell-based, human

Row | Molecule | Binding on Lipid II? [1] | active against S.aureus (IC100%) [2] | active against E.coli (IC100%) [3] | cytotoxic for Caco II (C50% survival) [4] | IC50 [4] [µM] | cytotoxic for Caco II (C50% survival) ([4]; Table S3, No = not cytotoxic) | IC50 ([4]; Table S3, No = not cytotoxic, read-out: cytotoxic for Caco II (C50% survival)) [µM] | binding to Lipid II compared to wild-type HNP-1 ([1]; 10 µM peptide, 40 RUs 3-Lipid II)
1 | Cc1cc2ccccc2n1C=CC1=[N+](C)c2ccccc2C1(C)C [4431/1, 1,3,3-trimethyl-2-(2-(2-methyl-1H-indol-1-yl)vinyl)-3H-1λ5-indole] | No | 250 µM | No | No | – | – | – | –
2 | CN(C)c1ccc(C(c2ccc(N(C)C)cc2)C(O)c2ccccc2)cc1 (stereo not drawn) [35487/2, 2,2-bis(4-(dimethylamino)phenyl)-1-phenylethanol] | No | No | No | No | – | – | – | –
3 | CN(C)c1ccc(C2C=C(c3ccccc3)Oc3ccccc32)cc1 (stereo not drawn) [55870/1, N,N-dimethyl-4-(2-phenyl-4H-chromen-4-yl)aniline] | Yes | 250 µM | No | – | 25.9 | – | – | –
4 | CCN1C(=CC(C)=Cc2sc3ccccc3[n+]2CC)Sc2ccccc21 [96932/4, 3-ethyl-2-(3-(3-ethyl-1,3-benzothiazol-2(3H)-ylidene)-2-methyl-1-propenyl)-1,3λ5-benzothiazole] | No | 15,6 µM | 15.625 µM | – | 19 | – | – | –
5 | OC(c1cccc2ccccc12)c1c2ccccc2cc2ccccc12 (stereo not drawn) [179415/1, 9-anthryl(1-naphthyl)methanol] | Yes | 3,9 µM | No | – | – | No | – | –
6 | CCN1C(=CC(C)=Cc2sc3ccc4ccccc4c3[n+]2CC)Sc2ccc3ccccc3c21 [290437/2, 1-ethyl-2-(3-(1-ethylnaphtho[1,2-d][1,3]thiazol-2(1H)-ylidene)-2-methyl-1-propenyl)-1λ5-naphtho[1,2-d][1,3]thiazole] | No | – | – | – | 2.2 | – | – | –
7 | Cc1cc(C2c3ccccc3-c3ccccc32)cc(C)c1O [610995/1, 4-(9H-fluoren-9-yl)-2,6-dimethylphenol] | Yes | 125 µM | No | – | 9.2 | – | – | –
8 | OCC(CO)C1c2cccc3ccc4cccc1c4c23 [625586/1, 2-(4H-cyclopenta[def]phenanthren-4-yl)-1,3-propanediol] | No | No | No | – | 83.8 | – | – | –
9 | COc1ccc(C=C[c+]2cc(-c3ccccc3)cc(-c3ccccc3)o2)cc1 [BAS00138032, 2-[2-(4-Methoxy-phenyl)-vinyl]-4,6-diphenyl-pyranylium] | No | No | No | No | – | – | – | –
10 | CC(C)(C)c1csc(N2N=C(c3ccccc3)C(=NNc3ccccc3)C2=O)n1 [BAS00691248, 2-(4-tert-Butyl-thiazol-2-yl)-5-phenyl-4-(phenyl-hydrazono)-2,4-dihydro-pyrazol-3-one] | No | No | No | No | – | – | – | –
11 | CCN(CC)CCCN1CN(CCCN(CC)CC)CN(CCCN(CC)CC)C1 [Compound 000A-0859, (3-{3,5-bis[3-(diethylamino)propyl]-1,3,5-triazinan-1-yl}propyl)diethylamine] | Yes | 500 µM | 500 µM | – | 419 | – | – | –
12 | OCCSc1c(F)c(SCCO)c(SCCO)c(F)c1SCCO [Compound 0438-0367, 2-({2,5-difluoro-3,4,6-tris[(2-hydroxyethyl)sulfanyl]phenyl}sulfanyl)ethan-1-ol] | No | No | No | No | – | – | – | –
13 | c1ccc(-c2nc(N(c3ccccc3)c3ccccc3)s[n+]2-c2ccccc2)cc1 [Compound 1492-0330, 5-(diphenylamino)-2,3-diphenyl-1,2$l^5,4-thiadiazol-2-ylium] | Yes | – | – | – | – | – | – | –
14 | CN1/C(=C/C=C2/SC(=S)N(c3ccccc3)C2=O)C(C)(C)c2ccccc21 [Compound 2101-0102, (5E)-3-phenyl-2-sulfanylidene-5-{2-[(2E)-1,3,3-trimethyl-2,3-dihydro-1H-indol-2-ylidene]ethylidene}-1,3-thiazolidin-4-one] | – | No | – | No | – | – | – | –
15 | Cc1cc2c(cc1C)CSC(c1ccc(O)cc1)SC2 [Compound 2729-1114, 4-(7,8-dimethyl-3,5-dihydro-1H-2,4-benzodithiepin-3-yl)phenol] | No | No | No | – | – | – | 119 | –
16 | CN(C)c1ccc(C=C2C=C(c3ccccc3)OC(c3ccccc3)=C2)cc1 [Compound 3377-0105, 4-[(2,6-diphenyl-4H-pyran-4-ylidene)methyl]-N,N-dimethylaniline] | No | 500 µM | No | – | 100 | – | – | –
17 | CCC[N+](CC#CCO)(CC#Cc1ccccc1)CCC [Compound 4636-0141, (4-hydroxybut-2-yn-1-yl)(3-phenylprop-2-yn-1-yl)dipropylazanium] | No | No | No | No | – | – | – | –
18 | CCN1C(=O)C(c2ccc(O)cc2)(c2ccc(O)cc2)c2ccccc21 [Compound 4896-3423, 1-ethyl-3,3-bis(4-hydroxyphenyl)-2,3-dihydro-1H-indol-2-one] | – | No | – | – | 72.1 | – | – | –
19 | Fc1ccccc1CN1CCC(N2CCN(c3ccccc3)CC2)CC1 [Compound 5607-0206, 1-{1-[(2-fluorophenyl)methyl]piperidin-4-yl}-4-phenylpiperazine] | No | No | No | – | – | No | – | –
20 | O=Cc1ccc2c(c1)C1c3ccccc3C2c2ccccc21 [Compound 5100004, pentacyclo[6.6.6.0^{2,7}.0^{9,14}.0^{15,20}]icosa-2,4,6,9,11,13,15,17,19-nonaene-4-carbaldehyde] | No | No | No | No | – | – | – | –
21 | OCc1ccc2c(c1)C1c3ccccc3C2c2ccccc21 [Compound 5100015, pentacyclo[6.6.6.0~2,7~.0~9,14~.0~15,20~]icosa-2,4,6,9,11,13,15,17,19-nonaen-4-ylmethanol] | No | 500 µM | No | – | 68 | – | – | –
22 | CC[n+]1c(/C=C/C=C2C=C(/C=C/N(C(C)=O)c3ccccc3)CC(C)(C)C/2)sc2ccccc21.[I-] [Compound 5119716, 2-[(1E)-3-[(1E)-5,5-dimethyl-3-[(E)-2-(N-phenylacetamido)ethenyl]cyclohex-2-en-1-ylidene]prop-1-en-1-yl]-3-ethyl-1,3-benzothiazol-3-ium iodide] | No | 125 µM | No | – | 52.7 | – | – | –
23 | Cc1cc(C2(c3ccc(O)c(C)c3)C(=O)N(Cc3ccccc3)c3ccccc32)ccc1O [Compound 5142587, 1-benzyl-3,3-bis(4-hydroxy-3-methylphenyl)-2,3-dihydro-1H-indol-2-one] | No | 15,625 µM | No | – | 4.4 | – | – | –
24 | Oc1ccc(O)c2c1C1c3ccccc3C2c2ccccc21 [Compound 5190620, pentacyclo[6.6.6.0^{2,7}.0^{9,14}.0^{15,20}]icosa-2(7),3,5,9,11,13,15,17,19-nonaene-3,6-diol] | No | 62,5 µM | No | – | 3.7 | – | – | –
25 | OCCSc1ccc(Cc2ccc(SCCO)cc2)cc1 [Compound 5210734, 2,2'-[methylenebis(4,1-phenylenethio)]diethanol] | No | No | No | No | – | – | – | –
26 | OCCSc1ccc(-c2ccc(SCCO)cc2)cc1 [Compound 5230234, 2,2'-[4,4'-biphenyldiylbis(thio)]diethanol] | No | No | No | – | – | No | – | –
27 | HNP-1 R24A: single alanine mutant of HNP-1, Arg24 replaced by alanine | – | – | – | – | – | – | – | maintained significant binding
